Reference: ChEMBL document CHEMBL3352001, “2,4-Dialkyl-8,9,10,11-tetrahydrobenzo[g]pyrimido[4,5-c]isoquinoline-1,3,7,12(2H,4H)-tetraones as new leads against Mycobacterium tuberculosis” (Eur J Med Chem, 2014)
Values after ≈ are worked out from the molar mass of the structure shown. Values joined by “and” are separate entries in the source; they are usually repeats but may differ in a detail not shown here. Equal entries are not always repeated. Active and inactive are the calls of the source. No cut-off for these calls is given here.

What was measured:
[1] = tested on: Mycobacterium tuberculosis; test: Antimicrobial activity against multi-drug resistant Mycobacterium tuberculosis LAM-1 strain clinical isolate assessed as critical concentration to induce 99% growth reduction at 10 to 20 ug/mL by BACTEC_MGIT_960-TB detection system; type: functional
[2] = tested on: Mycobacterium tuberculosis; test: Antimycobacterial activity against Mycobacterium tuberculosis H37Rv transformed with pSMT1 luciferase reporter plasmid assessed as growth inhibition after 6 days by luminometry; type: functional; settings: for GI50: Mycobacterium tuberculosis, H37Rv, 144 h
[3] = tested on: Mycobacterium tuberculosis; test: Antimicrobial activity against multi-drug resistant Mycobacterium tuberculosis LAM-1 strain clinical isolate assessed as growth reduction at 0.1 ug/mL by BACTEC_MGIT_960-TB detection system; type: functional, organism-based
[4] = tested on: Mycobacterium tuberculosis; test: Antimicrobial activity against multi-drug resistant Mycobacterium tuberculosis LAM-1 strain clinical isolate assessed as growth reduction by BACTEC_MGIT_960-TB detection system; type: functional

CCCCCCCn1c(=O)c2c3c(cnc2n(CCCCCCC)c1=O)C(=O)C1=C(C3=O)C2CCC1C2 (stereo not drawn)
INH [1]: 10 µg/mL
GI90 [2]: 2.45 mg/L (≈ 4.85 µM)
GI99 [2]: 5.57 µg/mL
GI50 [2]: 0.63 mg/L (≈ 1.25 µM)

CC(C)Cn1c(=O)c2c3c(cnc2n(CC(C)C)c1=O)C(=O)C1=C(C3=O)C2CCC1CC2
GI90 [2]: 9.31 mg/L (≈ 21.4 µM)
GI99 [2]: 12.28 µg/mL
GI50 [2]: 4.36 mg/L (≈ 10 µM)

CCn1c(=O)c2c3c(cnc2n(CC)c1=O)C(=O)C1=C(C3=O)C2CCC1CC2
GI90 [2]: 4.33 mg/L (≈ 11.4 µM)
GI99 [2]: 12.06 µg/mL
GI50 [2]: 2.55 mg/L (≈ 6.72 µM)

CC(C)CCn1c(=O)c2c3c(cnc2n(CCC(C)C)c1=O)C(=O)C1=C(C3=O)C2CCC1C2 (stereo not drawn)
GI90 [2]: 8.11 mg/L (≈ 18 µM)
GI99 [2]: 16.32 µg/mL
GI50 [2]: 2.41 mg/L (≈ 5.36 µM)

CCCn1c(=O)c2c3c(cnc2n(CCC)c1=O)C(=O)C1=C(C3=O)C2CCC1C2 (stereo not drawn)
GI90 [2]: 4.28 mg/L (≈ 10.9 µM)
GI99 [2]: 6.23 µg/mL
GI50 [2]: 1.73 mg/L (≈ 4.4 µM)

CCCn1c(=O)c2c3c(cnc2n(CCC)c1=O)C(=O)C1=C(C3=O)C2CCC1CC2
GI90 [2]: 5.98 mg/L (≈ 14.7 µM)
GI99 [2]: 7.34 µg/mL
GI50 [2]: 2.59 mg/L (≈ 6.36 µM)

CC(C)C1CCC(=O)c2c1ncc1c2C(=O)C2=C(C1=O)C1CCC2C1 (stereo not drawn)
GI99 [2]: 24.66 µg/mL and 48.06 µg/mL
GI50 [2]: 5.55 mg/L (≈ 16.5 µM)

CC(C)CCn1c(=O)c2c3c(cnc2n(CCC(C)C)c1=O)C(=O)C1=C(C3=O)C2CCC1CC2
GI90 [2]: 10.33 mg/L (≈ 22.3 µM)
GI99 [2]: 22.88 µg/mL
GI50 [2]: 4.9 mg/L (≈ 10.6 µM)

NNC(=O)c1ccncc1 [ISONIAZID]
GI99 [2]: 0.04 µg/mL and 0.06 µg/mL
GI50 [2]: 0.01 mg/L (≈ 0.0729 µM)
inhibition [3]: inactive

CCCCCn1c(=O)c2c3c(cnc2n(CCCCC)c1=O)C(=O)C1=C(C3=O)C2CCC1CC2
GI90 [2]: 4.78 mg/L (≈ 10.3 µM)
GI99 [2]: 13.37 µg/mL
GI50 [2]: 1.49 mg/L (≈ 3.21 µM)

CCCCCCn1c(=O)c2c3c(cnc2n(CCCCCC)c1=O)C(=O)C1=C(C3=O)C2CCC1C2 (stereo not drawn)
GI90 [2]: 5.43 mg/L (≈ 11.4 µM)
GI99 [2]: 11.6 µg/mL
GI50 [2]: 1.22 mg/L (≈ 2.55 µM)

Cn1c(=O)c2c3c(cnc2n(C)c1=O)C(=O)C1=C(C3=O)C2CCC1C2 (stereo not drawn)
GI90 [2]: 5.87 mg/L (≈ 17.4 µM)
GI99 [2]: 10.43 µg/mL
GI50 [2]: 1.58 mg/L (≈ 4.68 µM)

CCn1c(=O)c2c3c(cnc2n(CC)c1=O)C(=O)C1=C(C3=O)C2CCC1C2 (stereo not drawn)
GI90 [2]: 5.32 mg/L (≈ 14.6 µM)
GI99 [2]: 9.21 µg/mL
GI50 [2]: 1.69 mg/L (≈ 4.63 µM)

CCCCn1c(=O)c2c3c(cnc2n(CCCC)c1=O)C(=O)C1=C(C3=O)C2CCC1CC2
GI90 [2]: 5.2 mg/L (≈ 11.9 µM)
GI99 [2]: 9.6 µg/mL
GI50 [2]: 1.84 mg/L (≈ 4.22 µM)

Cn1c(=O)c2c3c(cnc2n(C)c1=O)C(=O)C1=C(C3=O)C2CCC1CC2
GI90 [2]: 6.98 mg/L (≈ 19.9 µM)
GI99 [2]: 15.43 µg/mL
GI50 [2]: 2.83 mg/L (≈ 8.05 µM)

CCCCCCn1c(=O)c2c3c(cnc2n(CCCCCC)c1=O)C(=O)C1=C(C3=O)C2CCC1CC2
GI90 [2]: 6.13 mg/L (≈ 12.5 µM)
GI99 [2]: 14.89 µg/mL
GI50 [2]: 1.36 mg/L (≈ 2.77 µM)

CCCCn1c(=O)c2c3c(cnc2n(CCCC)c1=O)C(=O)C1=C(C3=O)C2CCC1C2 (stereo not drawn)
GI90 [2]: 4.59 mg/L (≈ 10.9 µM)
GI99 [2]: 7.23 µg/mL
GI50 [2]: 1.46 mg/L (≈ 3.46 µM)

CC(C)n1c(=O)c2c3c(cnc2n(C(C)C)c1=O)C(=O)C1=C(C3=O)C2CCC1CC2
INH [1]: 10 µg/mL
GI90 [2]: 2.32 mg/L (≈ 5.69 µM)
GI99 [2]: 4.89 µg/mL
GI50 [2]: 0.73 mg/L (≈ 1.79 µM)

CCCCCn1c(=O)c2c3c(cnc2n(CCCCC)c1=O)C(=O)C1=C(C3=O)C2CCC1C2 (stereo not drawn)
GI90 [2]: 4.09 mg/L (≈ 9.1 µM)
GI99 [2]: 9.54 µg/mL
GI50 [2]: 1.26 mg/L (≈ 2.8 µM)

CC(C)n1c(=O)c2c3c(cnc2n(C(C)C)c1=O)C(=O)C1=C(C3=O)C2CCC1C2 (stereo not drawn)
INH [1]: 5 µg/mL
GI90 [2]: 1.5 mg/L (≈ 3.81 µM)
GI99 [2]: 3 µg/mL
GI50 [2]: 0.52 mg/L (≈ 1.32 µM)
MIC [4]: 5 mg/L (≈ 12.7 µM)

CCCCCCCn1c(=O)c2c3c(cnc2n(CCCCCCC)c1=O)C(=O)C1=C(C3=O)C2CCC1CC2
INH [1]: 10 µg/mL
GI90 [2]: 3.78 mg/L (≈ 7.27 µM)
GI99 [2]: 6.89 µg/mL
GI50 [2]: 1.32 mg/L (≈ 2.54 µM)

CC(C)C1CCc2ncc3c(c2C1=O)C(=O)C1=C(C3=O)C2CCC1C2 (stereo not drawn)
GI90 [2]: 39.2 mg/L (≈ 117 µM)
GI99 [2]: >100 µg/mL
GI50 [2]: 20.4 mg/L (≈ 60.8 µM)

CC(C)Cn1c(=O)c2c3c(cnc2n(CC(C)C)c1=O)C(=O)C1=C(C3=O)C2CCC1C2 (stereo not drawn)
GI90 [2]: 5.3 mg/L (≈ 12.6 µM)
GI99 [2]: 11.01 µg/mL
GI50 [2]: 2.08 mg/L (≈ 4.93 µM)
